# Measurements as given in patent publication US11014898B1, “Benzothiazepine compounds and their use as bile acid modulators” (Albireo AB, priority 2020, dated 2021).
# pIC50: −log10 of the molar value.
# Legend:
# [1] = Bidirectional permeability assay (Caco-2 cells); format: in vitro ADME; details: human, Caco-2, pH 7.4, 10 μM in FaSSIF buffer, 120 minutes at 37° C.; for Papp A→B at 120 min, 10 μM: absorptive direction (A2B); for Papp B→A at 120 min, 10 μM: secretory direction (B2A)
# Experimental: Caco-2 cells (Evotec) were seeded at a density of 70,000 cells/well in Millicell® 24-well cell culture insert plates and maintained in an incubator (37° C., 5% CO2, 95% RH) for 21 days with media change on alternate days.
# Stock solutions (10 mM) of the test compounds, atenolol (low permeability marker), propranolol (high permeability marker) and digoxin (substrate for P-gp transport pathway) were prepared in dimethylsulfoxide (DMSO). An intermediate stock solution (1 mM) was prepared by diluting 10 μL of 10 mM master stock solution with 90 μL of neat DMSO. A working stock solution (10 μM) was prepared by diluting 50 μL of 1 mM with 4950 μL of FaSSIF buffer. Post addition of compounds to the FaSSIF, samples were subjected to sonication for 2 hours, and centrifuged at 4000 RPM for 30 minutes at 37° C. The 4 mL of resultant supernatant was directly used in the assay. The final DMSO concentration in the transport experiments was 1%.
# On the day of assay, Caco-2 monolayers were washed twice with transport buffer (HBSS, pH 7.4) and pre-incubated for 30 min (37° C., 5% CO2, 95% RH) in an incubator. The electrical resistance of the monolayers was measured with a Millicell®-ERS system. Monolayers with trans-epithelial electrical resistance (TEER) values greater than 350 ohm·cm^2 were selected for the assay.
# The assay was conducted in absorptive direction (A2B) and secretory (B2A) directions. Transport experiments were initiated by addition of transport assay buffer (FaSSIF buffer prepared in HBSS) consisting of compounds to the donor compartment (apical chamber A-B; basolateral chamber B-A) in duplicate (n=2) wells. Drug free HBSS buffer (pH 7.4) containing 1% bovine serum albumin (BSA) was introduced to the receiver (A-B-basolateral; B-A-Apical) compartments. The volumes of apical and basolateral compartments were 0.4 and 0.8 mL, respectively. After adding dosing solution, plates were incubated in an incubator for 120 minutes at 37° C. After 120 minutes, donor and receiver samples were collected and matrix matched (1:1, 30 μL study sample+30 μL blank buffer) with the opposite buffer. Dosing samples matrix matched (1:1, 30 μL study sample+30 μL blank buffer) with the opposite buffer. Samples were processed by adding acetonitrile containing internal standard (60 μL study sample+200 μL acetonitrile containing internal standard-Tolbutamide, 500 ng/mL). Samples were vortexed and centrifuged at 4000 rpm for 10 minutes. The obtained supernatant (100 μL) was diluted with 100 μL of water and transferred to fresh 96 well plates. The concentration of compounds in the samples was analyzed by liquid chromatography tandem mass spectrometry (LC-MS/MS) method using discovery grade bio-analytical method, as applicable.
# The mean apparent permeability (Papp×10^−6 cm/sec) of the test compounds, atenolol, propranolol and digoxin were calculated as follows:
# where dq/dt=rate of transport (rate of transport of compound in the receiver compartment), C0=initial concentration in the donor compartment, A=surface area of the effective filter membrane.
# [2] = molecular target: T1, Human IBAT (Homo sapiens, UniProt Q12908); assay: IBAT (h) assay: 3H-taurocholic acid uptake in human IBAT-overexpressing cells; format: cell-based; details: 0.25 μM 3H-taurocholic acid and 5 μM cold taurocholic acid, 20 minutes, read-out: hIBAT IC50
# T1 construct: expressed in transfected cells; cells kept under Puromycin selection
# T1 sequence (Q12908 1-348): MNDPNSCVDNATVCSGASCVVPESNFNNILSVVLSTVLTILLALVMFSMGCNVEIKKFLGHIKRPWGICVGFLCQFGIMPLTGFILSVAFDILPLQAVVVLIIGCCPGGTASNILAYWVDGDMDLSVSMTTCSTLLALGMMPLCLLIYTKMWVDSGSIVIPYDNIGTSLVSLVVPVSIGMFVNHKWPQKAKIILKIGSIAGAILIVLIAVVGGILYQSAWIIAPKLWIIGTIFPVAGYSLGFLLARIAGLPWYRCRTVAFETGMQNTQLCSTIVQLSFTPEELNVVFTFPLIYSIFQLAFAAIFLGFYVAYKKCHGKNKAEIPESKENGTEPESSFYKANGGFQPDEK
# Experimental: 10,000 cells (Human or Mouse IBAT-overexpressing cells) were seeded in 96-wells plate (Corning CLS3809) in 200 μL MEM-alpha medium (Gibco 12571-063) supplemented with 10% FBS (Gibco 10438026) containing Puromycin (Gibco A1113803) (10 μg/mL) and incubated at 37° C. in 5% CO2 for 48 hours. After incubation, media was decanted from the wells and cells were washed two times with 300 μL of basal MEM-alpha medium (FBS-free). After decanting basal MEM-alpha medium each time, plates were tapped against paper towel to ensure maximum removal of residual media. Test inhibitor dilutions (highest test concentration being 10 μM, 3-fold serial dilution, 10 points) prepared in DMSO (Sigma D2650) were added in incubation mix (maintaining 0.2% final DMSO concentration) containing 0.25 μM 3H-taurocholic acid (ARC ART-1368) and 5 μM of cold taurocholic acid (Sigma T4009). 50 μL of incubation mix containing test inhibitors was then added to the wells (in duplicate) and the plates were incubated for 20 minutes in a CO2 incubator at 37° C. After incubation, the reaction was stopped by keeping the plates on ice water mix for 2-3 minutes and then the incubation mix was aspirated completely from the wells. The wells were washed two times with 250 μL of chilled unlabelled 1 mM taurocholic acid dissolved in HEPES (Gibco 15630080)-buffered (10 mM) HBSS (Gibco 14175079) (pH 7.4). The plates were tapped against a paper towel after every wash to ensure maximum removal of blocking buffer.
# 100 μL of MicroScint-20 (PerkinElmer 6013621) was added to the wells and kept overnight at room temperature before reading the plates in TopCount NXT™ Microplate Scintillation and Luminescence Counter from PerkinElmer under 3H Test protocol (set at 120 seconds reading time per well).
# All test compounds were provided in powder form at room temperature. 10 mM DMSO stocks of the test compounds were prepared, aliquoted and stored at −20° C. From the 10 mM DMSO stock of the compounds, a 3-fold serial dilution in DMSO was prepared to get a total of 10 dilutions of the test compounds. 0.5 μL of this dilution in DMSO was added to 250 μL of FBS-free basal media containing 3H-taurocholic acid and cold taurocholic acid to prepare the incubation mixture.
"Papp A→B at 120 min, 10 μM [1] [×10⁻⁶ cm/s]","Papp B→A at 120 min, 10 μM [1] [×10⁻⁶ cm/s]",pIC50 [2],SMILES
4.1,1.9,7.59,"CCCCC1(CCCC)CN(c2ccc(Br)cc2)c2cc(SC)c(OCC(=O)O)cc2S(=O)(=O)C1 [Example 3, 2-((5-(4-bromophenyl)-3,3-dibutyl-7-(methylthio)-1,1-dioxido-2,3,4,5-tetrahydro-1,5-benzothiazepin-8-yl)oxy)acetic Acid]"
3.3,8.9,7.82,"CCCCC1(CCCC)CN(c2ccc(O)cc2)c2cc(SC)c(OCC(=O)O)cc2S(=O)(=O)C1 [Example 4, 2-((3,3-dibutyl-5-(4-hydroxyphenyl)-7-(methylthio)-1,1-dioxido-2,3,4,5-tetrahydro-1,5-benzothiazepin-8-yl)oxy)acetic Acid]"
